In brackets after ≈: the same amount, converted by molar mass. Where two headings read alike, the source gives them in different places.

These results are taken from patent US11358987B2, “Albicidin derivatives, their use and synthesis” (priority 2018, dated 2022).

What all share (test): Microdilution assay, MIC determination (CLSI M07-A9)
Holding throughout (format): cell-based
For orientation: Broth dilution looks for growth in wells or tubes with falling amounts of substance.

One assay deals with E. coli BW25113. Conditions: Escherichia coli. On the procedure: (§1) E. coli DSM 1116; E. coli BW25113; S. typhimurium TA100; Bacillus subtilis DSM10; M. phlei DSM750 and Micrococcus luteus DSM1790
(§2) The tests were performed using the micro dilution method.
(§3) The determination of MIC values was performed according to the ninth edition of the Approved Standard M07-A9 (CLSI. Methods for Dilution Antimicrobial Susceptibility Tests for Bacteria That Grow Aerobically; Approved Standard-Ninth Edition. CLSI document M07-A9. Wayne, Pa.: Clinical and Laboratory Standards Institute; 2012.)
(§4) The test was carried out for the six different bacterial strains 20 μL of cryo stock of each strain were inoculated in 20 mL of LB media (Lysogeny broth: 10 g/L peptone, 5 g/L yeast extract, 5 g/L NaCl) followed by incubation over night at 37° C., 200 rpm. The test inoculum was adjusted by the 0.5 McFarland Standard (OD625 from 0.08 to 0.1). Within 15 min of preparation, the adjusted inoculum suspension was diluted in MHBII media (BBL™ Mueller-Hinton Broth II, Becton, Dickinson and Company, New Jersey/USA) so that each well contained approximately 5×10^5 CFU/mL in a final volume of 100 μL. 95 μL of the inoculum were applied per well and 5 μL of the (diluted) antibiotic substance were added.
(§5) Previously the dry antibiotic compounds were dissolved in DMSO (100%) with a concentration of 2560 μg/mL and the resulting stock solutions were further diluted in DMSO (100%). 5 μL of each antibiotic dilution were applied to the microdilution tray to reach final concentrations of 64 μg/mL to 0.008 μg/mL. One row of each well plate was left as a growth control without antibiotic substances and another row of the microdilution tray was used as sterility control (only MHB II-media). The antimicrobial effect of the solvent (DMSO) was tested by adding 5 μL DMSO to several wells without antibiotics.
(§6) Purity check and cell titer control were performed according to International Standard M07-A9 on Mueller-Hinton II Agar (Mueller Hinton II Broth, 15 g/L agar-agar).
(§7) Both microdilution trays and agar plates were incubated at 37° C. for 20 h and subsequently analyzed visually.

The subject of a further assay is B. subtilis DSM10. Conditions: Bacillus subtilis; B. subtilis DSM10; 37° C., 20 h, MHBII media; read-out: MIC. Here is the method:
as §1, §2, §3, §4, §5, §6, §7

The subject of another assay is E. coli DSM1116. As to conditions: Escherichia coli. Here is the method: as §1, §2, §3, §4, §5, §6, §7
The test system of the next assay is M. phlei DSM750. Conditions: Mycolicibacterium phlei; M. phlei DSM750; 37° C., 20 h, MHBII media; read-out: MIC. On the procedure: as §1, §2, §3, §4, §5, §6, §7
For another assay, the system named is S. typhimurium TA100. Conditions: Salmonella enterica, 20 h. Here is the method: as §1, §2, §3, §4, §5, §6, §7
In a further assay the test system is M. luteus DSM1790. Conditions: Micrococcus luteus; M. luteus DSM1790; 37° C., 20 h, MHBII media; read-out: MIC. Here is the method:
as §1, §2, §3, §4, §5, §6, §7

[1] abbreviates: E. coli BW25113, 37° C., 20 h, MHBII media, read-out: MIC.
Where [2] appears, read: E. coli DSM1116, 37° C., 20 h, MHBII media, read-out: MIC.
The mark [3] stands for this setting: S. typhimurium TA100, 37° C., MHBII media, read-out: MIC.

As for `CC(C)Oc1c(NC(=O)c2ccc(NC(=O)[C@H](Cc3c[nH]nn3)NC(=O)c3ccc(NC(=O)c4ccc(C#N)cc4)cc3)cn2)ccc(C(=O)Nc2ccc(C(=O)O)cc2)c1O` [Compound 17], the MIC in the assay with E. coli BW25113 (setting [1]) was 31 µg/mL (≈ 37 µM); in the assay on B. subtilis DSM10 it was 31 µg/mL (≈ 37 µM); with E. coli DSM1116 (setting [2]), 31 µg/mL (≈ 37 µM); with M. phlei DSM750 it was 500 µg/mL (≈ 597 µM); in the assay with S. typhimurium TA100 (setting [3]) it was ≤ 16 µg/mL; in the assay with M. luteus DSM1790 it was 125 µg/mL (≈ 149 µM).
As for `CC(C)Oc1c(NC(=O)c2ccc(NC(=O)[C@H](Cc3c[nH]nn3)NC(=O)c3ccc(NC(=O)c4ccc(C#N)cc4)cn3)cn2)ccc(C(=O)Nc2ccc(C(=O)O)cc2)c1O` [Compound 18], the MIC is ≤ 16 µg/mL in the assay on E. coli BW25113 (setting [1]); ≤ 16 µg/mL in the assay with B. subtilis DSM10; 31 µg/mL (≈ 37 µM) in the assay on E. coli DSM1116 (setting [2]); 31 µg/mL (≈ 37 µM) in the assay with M. phlei DSM750; ≤ 16 µg/mL in the assay on S. typhimurium TA100 (setting [3]); ≤ 16 µg/mL in the assay with M. luteus DSM1790.
Take `COc1nc(C(=O)Nc2ccc(C(=O)O)nc2OC)ccc1NC(=O)c1ccc(NC(=O)[C@H](Cc2c[nH]nn2)NC(=O)c2ccc(NC(=O)/C(C)=C/c3ccc(O)cc3)cc2)cc1` [Compound 19]: the MIC in the assay on E. coli BW25113 (setting [1]) came to 1000 µg/mL (≈ 1170 µM); in the assay on B. subtilis DSM10, 4000 µg/mL (≈ 4680 µM); in the assay with E. coli DSM1116 (setting [2]) it was 500 µg/mL (≈ 585 µM); in the assay on M. phlei DSM750, 8000 µg/mL (≈ 9360 µM); in the assay with S. typhimurium TA100 (setting [3]), 500 µg/mL (≈ 585 µM); in the assay with M. luteus DSM1790 it was 2000 µg/mL (≈ 2340 µM).
Turning to `COc1c(NC(=O)c2ccc(NC(=O)[C@H](Cc3c[nH]nn3)NC(=O)c3ccc(NC(=O)/C(C)=C/c4ccc(O)cc4)cc3)cc2)ccc(C(=O)Nc2ccc(C(=O)O)nc2)c1O` [Compound 20], the MIC in the assay with E. coli BW25113 (setting [1]) was > 8000 µg/mL; with B. subtilis DSM10, ≥ 8000 µg/mL; in the assay on E. coli DSM1116 (setting [2]), > 8000 µg/mL; with M. phlei DSM750, ≥ 8000 µg/mL; against S. typhimurium TA100 (TYPHIMURIUM) it was 125 µg/mL (≈ 149 µM); in the assay with M. luteus DSM1790 it was ≥ 8000 µg/mL.
As for `COc1c(NC(=O)c2ccc(NC(=O)[C@H](Cc3c[nH]nn3)NC(=O)c3ccc(NC(=O)/C(C)=C/c4ccc(O)cc4)cc3)cc2)ccc(C(=O)Nc2ccc(C(=O)O)cn2)c1O` [Compound 21], the MIC amounted to 125 µg/mL (≈ 149 µM) against E. coli BW25113 (BW25113, 20 h); 4000 µg/mL (≈ 4760 µM) in the assay with B. subtilis DSM10; 125 µg/mL (≈ 149 µM) against E. coli DSM1116 (DSM1116, 20 h); 4000 µg/mL (≈ 4760 µM) in the assay on M. phlei DSM750; 16 µg/mL (≈ 19.1 µM) in the assay with S. typhimurium TA100 (setting [3]); 4000 µg/mL (≈ 4760 µM) in the assay on M. luteus DSM1790.

One may read the MIC as the lowest concentration found to suppress growth.
